The results in this text go back to patent US20110190503A1, “Thiazolopyridin-2-yloxy-phenyl and thiazolopyrazin-2-yloxy-phenyl amines as modulators of leukotriene A4 hydrolase” (Janssen Pharmaceutical NV, priority 2008, published 2011).

Assay [1] has as its system LTB4 production by calcium ionophore-stimulated murine blood. As to the kind of experiment: LTB4 production by calcium ionophore-stimulated murine blood for LTA4H inhibitor activity. The settings on record: Mus musculus. The format is cell-based, CD-1 mice. The method, boiled down: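 Heparinized CD-1 mouse blood pre-incubated with compound 15 min at 37° C, then stimulated with calcium ionophore A23187 (7 μg/mL final) for 30 min. LTB4 in supernatant measured by enzyme immunoassay; values are single or averaged determinations, with SD for n≥3.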

Assay [2] has as its system LTB4 production by calcium ionophore-stimulated human blood. The assay can be described thus: LTB4 production by calcium ionophore-stimulated human blood for LTA4H inhibitor activity. The format is cell-based. The procedure:
Assay 3: LTB4 Production by Calcium Ionophore-Stimulated Human Blood for LTA4H Inhibitor Activity
Human blood was collected from healthy donors in heparin-containing syringes. The blood was diluted 1:1 with RPMI-1640 medium, and 200-μL aliquots of the diluted blood were added to wells of a 96-well microtiter plate. LTA4H inhibitor test compounds were prepared at different concentrations in RPMI-1640 medium containing 1% DMSO, and 20 μL of each test solution was added to a well containing diluted whole blood (final DMSO concentration of 0.1%). After the microtiter plate contents were incubated for 15 min at 37° C. in a humidified incubator, calcium ionophore A23187 (Sigma Chemical Co., St. Louis, Mo.) was added to each sample well (final concentration=7 μg/mL). The incubation was continued under the same conditions for an additional 30 min to allow LTB4 formation. The reaction was terminated by centrifugation (833×g, 10 min at 4° C.), and supernatants were analyzed for LTB4 by a commercially available enzyme-linked immunoassay (Cayman Chemical Co.) according to the manufacturer's instructions. Positive controls, under essentially identical conditions but without addition of an inhibitor compound, and negative unstimulated controls, containing all assay components except calcium ionophore, were routinely run in each experiment. IC50 values for compounds tested in this assay were determined by nonlinear regression of the activity data at different compound concentrations using Graphpad Prism 4.0, one site binding competition, and are presented in Table 3. The number of determinations made is indicated in parentheses following each value.

Assay [3] concerns ex vivo stimulated LTB4 production. The assay can be described thus: Murine arachidonic acid-induced inflammation model: ex vivo stimulated LTB4 production (% Inh. LTB4). Conditions: Mus musculus; female Balb/c mice, 30 mg/kg oral gavage; blood taken 3 h after arachidonic acid, ex vivo A23187 stimulation; number of determinations in parentheses. The method, boiled down: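 Female Balb/c mice got 30 mg/kg orally in 20% cyclodextran/H2O. Heparinized blood in RPMI-1640 was stimulated with A23187 ([…]) for 30 min at 37 °C. LTB4 was measured by ELISA as % inhibition versus vehicle-dosed mice.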

[4] abbreviates: murine blood diluted 1 in 15, calcium ionophore A23187, LTB4 by immunoassay, read-out: IC50.
Where [5] appears, read: human blood diluted 1:1, calcium ionophore A23187, LTB4 by immunoassay, n in parentheses, read-out: IC50.

Like-named read-outs stand apart in the source and are kept apart here.

With `NC(=O)N1C[C@H]2C[C@@H]1CN2Cc1ccc(Oc2nc3ncccc3s2)cc1` [Example 266, (1R,4R)-5-[4-([1,3]Thiazolo[4,5-b]pyridin-2-yloxy)benzyl]-2,5-diazabicyclo[2.2.1]heptane-2-carboxamide], the IC50 (usually the concentration needed to halve the response being measured) in assay [1] (setting [4]) came to 140 nM; in assay [2] (setting [5]) it was 154 nM. In addition, the inhibition (commonly the change of the read-out against control, counted positive when it falls) at 30 mg/kg in assay [3] was determined as 78.6%.
For `CC(=O)N1C[C@H]2C[C@@H]1CN2Cc1ccc(Oc2nc3ncccc3s2)cc1` [Example 265, 2-(4-{[(1R,4R)-5-Acetyl-2,5-diazabicyclo[2.2.1]hept-2-yl]methyl}phenoxy)[1,3]thiazolo[4,5-b]pyridine], in that order: 23 nM, 72 nM and 84.4%.
For `CC(=O)N1C[C@@H]2C[C@H]1CN2CCOc1ccc(Oc2nc3ncccc3s2)cc1` [Example 14, 2-(4-{2-[(1S,4S)-5-Acetyl-2,5-diazabicyclo[2.2.1]hept-2-yl]ethoxy}phenoxy)[1,3]thiazolo[4,5-b]pyridine], in that order: 18 ± 13 nM, 79 nM and 84%.
The matching figures for `NC(=O)N1C[C@@H]2C[C@H]1CN2Cc1ccc(Oc2nc3ncccc3s2)cc1` [Example 106, (1S,4S)-5-[4-([1,3]Thiazolo[4,5-b]pyridin-2-yloxy)benzyl]-2,5-diazabicyclo[2.2.1]heptane-2-carboxamide]: 79 nM, 141 nM and 90.5%.
For `CC(=O)N1C[C@@H]2C[C@H]1CN2CCc1ccc(Oc2nc3ncccc3s2)cc1` [Example 75, 2-(4-{2-[(1S,4S)-5-Acetyl-2,5-diazabicyclo[2.2.1]hept-2-yl]ethyl}phenoxy)[1,3]thiazolo[4,5-b]pyridine], the IC50 in assay [1] (setting [4]) came out at 44 nM; in assay [2] (setting [5]), 299 nM. Moreover, the inhibition at 30 mg/kg in assay [3] is 89.5%.
The matching figures for `NC(=O)C1CCN(CCOc2ccc(Oc3nc4ncccc4s3)cc2)CC1` [Example 31, 1-{2-[4-([1,3]Thiazolo[4,5-b]pyridin-2-yloxy)phenoxy]ethyl}piperidine-4-carboxamide]: 31 nM, 53 nM and 79.8%.
For the compound `CC(=O)N[C@@H]1C[C@H]2CC[C@@H](C1)N2Cc1ccc(Oc2nc3ncccc3s2)cc1` [Example 109, meso-N-{(3-exo)-8-[4-([1,3]Thiazolo[4,5-b]pyridin-2-yloxy)benzyl]-8-azabicyclo[3.2.1]oct-3-yl}acetamide], the IC50 in assay [1] was 60 nM; in assay [2] (Homo sapiens), 87 nM. Besides, in assay [3], the inhibition at 30 mg/kg stood at 84.8%.
Take `O=C1CCCN1C1CCN(Cc2ccc(Oc3nc4ncccc4s3)cc2)CC1` [Example 83, 1-{1-[4-([1,3]Thiazolo[4,5-b]pyridin-2-yloxy)benzyl]piperidin-4-yl}pyrrolidin-2-one]: the concentration for half-maximal inhibition (IC50) in assay [1] (setting [4]) is 55 nM; in assay [2] (setting [5]) it was 134 nM. Also, the inhibition at 30 mg/kg in assay [3] turned out to be 81%.
Consider `CC(=O)N[C@H]1C[C@H]2CC[C@@H](C1)N2Cc1ccc(Oc2nc3ncccc3s2)cc1` [Example 116, meso-N-{(3-endo)-8-[4-([1,3]Thiazolo[4,5-b]pyridin-2-yloxy)benzyl]-8-azabicyclo[3.2.1]oct-3-yl}acetamide], for which the values for the IC50 in assay [1] and in assay [2] (Homo sapiens) were 22 ± 17 nM and 19 nM, respectively. In addition, the inhibition at 30 mg/kg in assay [3] stood at 81%.
For `CC(=O)N1C[C@H]2CC[C@@H](C1)N2CCc1ccc(Oc2nc3ncccc3s2)cc1` [Example 55, meso-2-(4-{2-[3-Acetyl-3,8-diazabicyclo[3.2.1]oct-8-yl]ethyl}phenoxy)[1,3]thiazolo[4,5-b]pyridine], the half-maximal inhibitory concentration (IC50) in assay [1] (setting [4]) came out at 55 nM; in assay [2] (setting [5]) it was 99 nM. Further, the inhibition at 30 mg/kg in assay [3] worked out at 83.7%.
For `NC(=O)N1C[C@@H]2C[C@H]1CN2CCc1ccc(Oc2nc3ncccc3s2)cc1` [Example 45, (1S,4S)-5-{2-[4-([1,3]Thiazolo[4,5-b]pyridin-2-yloxy)phenyl]ethyl}-2,5-diazabicyclo[2.2.1]heptane-2-carboxamide], in that order: 170 nM, 256 nM and 86.8%.
The matching figures for `CC(=O)N1C[C@@H]2C[C@H]1CN2Cc1ccc(Oc2nc3ncc(C)cc3s2)cc1` [Example 121, 2-(4-{[(1S,4S)-5-Acetyl-2,5-diazabicyclo[2.2.1]hept-2-yl]methyl}phenoxy)-6-methyl[1,3]thiazolo[4,5-b]pyridine]: 120 ± 42 nM, 88 nM and 83%.
On to `O=C1CCCN1C1CCN(CCOc2ccc(Oc3nc4ncccc4s3)cc2)CC1` [Example 32, 1-(1-{2-[4-([1,3]Thiazolo[4,5-b]pyridin-2-yloxy)phenoxy]ethyl}piperidin-4-yl)pyrrolidin-2-one], for which the IC50 in assay [1] (setting [4]) is 22 nM; in assay [2] (setting [5]), 8 nM. Moreover, the inhibition at 30 mg/kg in assay [3] amounted to 89%.
The matching figures for `CC(=O)N1CC2CN(CCc3ccc(Oc4nc5ncccc5s4)cc3)CC2C1` (stereo not drawn) [Example 73, 2-{4-[2-(5-Acetylhexahydropyrrolo[3,4-c]pyrrol-2(1H)-yl)ethyl]phenoxy}[1,3]thiazolo[4,5-b]pyridine]: 50 nM, 227 nM and 85.7%.
The matching figures for `CC(=O)N1C[C@H]2C[C@@H]1CN2CCOc1ccc(Oc2nc3ncccc3s2)cc1` [Example 267, 2-(4-{2-[(1R,4R)-5-Acetyl-2,5-diazabicyclo[2.2.1]hept-2-yl]ethoxy}phenoxy)[1,3]thiazolo[4,5-b]pyridine]: 110 nM, 57 nM and 83.4%.
